Results published in patent US12290073B2, “Anti-microbial compound and methods of use” (SHENZHEN UNIVERSITY, priority 2019, dated 2025).
Where two headings read alike, the source gives them in different places.

Tests used:
[1] = test system: Staphylococcus Aureus (S. aureus, ATCC 6538); assay: Anti-microbial rate of finished cotton textiles, FZ/T73023-2006 D.8 shocking method; assay type: cell-based; conditions: Staphylococcus aureus, ATCC6538, finishing liquid 1.0 wt %, read-out: Anti-microbial rate (%) of cotton textiles finished with compound E (1.0 wt %), S. aureus
Excerpt: (§1) Each of the reaction products (i.e., compound E) according to Examples 1-21 was used to prepare an anti-microbial agent (e.g., a finishing liquid), and the anti-microbial effects were different depending on compound E and conditions of use.
(§2) Remarks: 1) in the data of anti-microbial rate in Table 5: Examples 1-9 used a soaking-rolling-drying process to finish cotton fabric, where the bath ratio (i.e., the ratio of the weight of a liquid containing compound E to the weight of the cotton fabric) was 20:1, the residual liquid ratio was 90%, and the drying process was conducted at 85° C. for 30 minutes; Examples 10-18 were prepared by a soaking-high speed spinning-drying method, where the bath ratio was 20:1, the residual liquid ratio was 90%, and the drying process was conducted at 85° C. for 20 min; Examples 19-21 were prepared by a spraying-spinning-drying process with a bath ratio of 30:1, a residual liquid ratio of 85% after drying, and the drying process was conducted at 105° C. for 5 minutes.
(§3) 2) Table 5 data test method: FZ/T73023-2006 anti-microbial textiles D.8 shocking method. In addition, the inhibition zone method (FZ/T73023-2006 anti-microbial textiles—Appendix E—inhibition zone method) was used to test whether the active compound (E) was released from the finished cotton textiles, the inhibition zone test result of the 21 examples and zwitterions were 0 mm, and thus compound E was not released from the finished cotton textiles. The anti-microbial finishing agent used in the comparative experiment was zwitterion with the molecular structure
(§4) 3) The composition of the finishing liquid in Table 5 was: compound E 1.0 wt %, sodium bicarbonate 1.0 wt %, and the rest of the finishing liquid was water.

[2] = test system: Escherichia Coli (E. coli, ATCC25922); assay: as above; assay type: cell-based; conditions: Escherichia coli, ATCC25922, finishing liquid 1.0 wt %, read-out: Anti-microbial rate (%) of cotton textiles finished with compound E (1.0 wt %), E. coli
Excerpt: as §1, §2, §3, §4

[3] = test system: Candida Albicans (C. albicans 10231); assay: as above; assay type: cell-based; conditions: Candida albicans, finishing liquid 1.0 wt %, read-out: Anti-microbial rate (%) of cotton textiles finished with compound E (1.0 wt %), C. albicans
Excerpt: as §1, §2, §3, §4

[4] = test system: Escherichia coli (E. coli, ATCC 25922); assay: Anti-microbial performance of finished textiles, shock method (GB/T 20944.3-2007); assay type: cell-based
Method: (§5) (1) A comparison of the anti-microbial effects of textiles soaked with compound E obtained in Example 2 and unsoaked textiles was shown in FIG. 1. The experimental procedure was: The anti-microbial performance of the finishing text was tested by the shock method (GB/T 20944.3-2007). The tested microorganism were Gram-negative Escherichia coli (E. coli, ATCC 25922) and Gram-positive Staphylococcus Aureus (S. Aureus, ATCC 6538). The specific experimental operations are as follows: 1) inoculating and culturing the microorganisms at 37° C. for 14 h; diluting the microbial solution to 10^−5 using a sterilized PBS buffer (pH=7.2) to obtain a diluted microbial solution; 2) taking the same size of blank textiles (e.g., cloth) and textiles (finished using compound E and sterilized) in different 50 mL tubes, adding 5 mL of diluted microbial solution to immerse the textiles, sealing the tubes and putting the tubes on a shaker for shaking the tubes under 37° C. at 190 r/min for 24 h; 3) after 24 hours of cultivation, the tubes were taken out and diluted to 10 times using a PBS solution. 100 μL of the diluted microbial solution was added to the nutrient agar medium, uniformly spread to dryness, placed in an incubator, and cultured at 37° C. for 16 h, and then the plates were taken out, and the number of colonies in each plate was counted. The anti-microbial rate was calculated by the following equation: Anti-microbial rate (%)=[…]. Notes: N1 denotes the number of colonies in the finished cloth; N0 denotes the number of colonies in blank cloth.
(§6) The inhibitory effect of compound E obtained in Example 19 on Escherichia coli and Staphylococcus Aureus at various concentrations was shown in FIGS. 3 to 5. The experimental procedure was: using the enzyme linked immunosorbent assay to determine the minimal inhibitory concentration (MIC) value of the anti-microbial drug, and adding the diluted anti-microbial drug solution to the sterilized 100-well plate, respectively. Specifically, 10 ul of drug solution (i.e., a solution of compound E) was added to the first to eleventh holes at concentrations of 100 μg/ml, 90 μg/ml, 80 μg/ml, 70 μg/ml, 60 μg/ml, 50 μg/ml, 40 μg/ml, 30 μg/ml, 20 μg/ml, 10 μg/ml, 5 μg/ml. The drug solution was not added to the twelfth hole which serves as a control group; the bacterial suspension was diluted by LB broth (0.5 Mcfarland Standard dilution to 1000 times with a bacterial concentration of 105 colony-forming unit (CFU)/ml), and 90 μl of the bacterial suspension was added to each well. […] The change curve of OD600 value for 24 h was measured in a microplate reader (automatic growth-curve machine). […]

[5] = test system: Staphylococcus Aureus (S. aureus, ATCC 6538); assay: as above; assay type: cell-based
Method: as §5, §6

[6] = test system: fungi (Aspergillus niger); assay: Anti-microbial performance of finished textiles, live cell counting method; assay type: cell-based; conditions: textiles soaked with compound E (1.0 wt %)
Method: (§7) (2) A comparison of the anti-microbial effects of textiles soaked with compound E obtained in Example 11 and unsoaked textiles was shown in FIG. 2. The experimental procedure was as follows: the anti-microbial performance of the finished textiles was tested by the live cell counting method, and the anti-mite activity of the house dust mites was evaluated according to the national standard method (GB/T 24253-2009).

[7] = test system: Gram-positive bacteria (Staphylococcus aureus); assay: as above; assay type: cell-based; conditions: textiles soaked with compound E (1.0 wt %)
Method: as §7

[8] = test system: Gram-negative bacteria (E. coli); assay: as above; assay type: cell-based; conditions: textiles soaked with compound E (1.0 wt %)
Method: as §7

house dust mites = assay: Anti-mite activity of finished textiles (GB/T 24253-2009); assay type: in vivo
Method: as §7

Escherichia coli = assay: Minimal inhibitory concentration (MIC), OD600 growth curve in microplate reader; assay type: cell-based; conditions: LB broth, OD600 for 24 h, read-out: minimum inhibitory concentration against Escherichia coli
Method: (§8) The inhibitory effect of compound E obtained in Example 19 on Escherichia coli and Staphylococcus Aureus at various concentrations was shown in FIGS. 3 to 5. The experimental procedure was: using the enzyme linked immunosorbent assay to determine the minimal inhibitory concentration (MIC) value of the anti-microbial drug, and adding the diluted anti-microbial drug solution to the sterilized 100-well plate, respectively. Specifically, 10 ul of drug solution (i.e., a solution of compound E) was added to the first to eleventh holes at concentrations of 100 μg/ml, 90 μg/ml, 80 μg/ml, 70 μg/ml, 60 μg/ml, 50 μg/ml, 40 μg/ml, 30 μg/ml, 20 μg/ml, 10 μg/ml, 5 μg/ml. The drug solution was not added to the twelfth hole which serves as a control group; the bacterial suspension was diluted by LB broth (0.5 Mcfarland Standard dilution to 1000 times with a bacterial concentration of 105 colony-forming unit (CFU)/ml), and 90 μl of the bacterial suspension was added to each well. At this time, the drug concentrations of the first to the eleventh holes were 10 μg/ml, 9 μg/ml, 8 μg/ml, 7 μg/ml, and 6 μg/ml, 5 μg/ml, 4 μg/ml, 3 μg/ml, 2 μg/ml, 1 μg/ml, 0.5 μg/ml respectively. The change curve of OD600 value for 24 h was measured in a microplate reader (automatic growth-curve machine). […]

Staphylococcus Aureus = assay: as above; assay type: cell-based; conditions: LB broth, OD600 for 24 h, read-out: minimum inhibitory concentration against Staphylococcus Aureus
Method: as §8

[9] = both finishing liquids 1.0 wt %
[10] = finished cloth, concentration of compound E >0.1%

MIC (Escherichia coli) [µg/mL]	MIC (Staphylococcus Aureus) [µg/mL]	SMILES	killing at 1 % ([1]; times of washing 0) [%]	killing at 1 % ([1]; times of washing 10) [%]	killing at 1 % ([1]; times of washing 50) [%]	killing at 1 % ([2]; times of washing 0) [%]	killing at 1 % ([2]; times of washing 10) [%]	killing at 1 % ([2]; times of washing 50) [%]	killing at 1 % ([3]; times of washing 0) [%]	killing at 1 % ([3]; times of washing 10) [%]	killing at 1 % ([3]; times of washing 50) [%]	anti-microbial activity of finishing liquid compared with zwitterionic finishing liquid, E. coli [4, 9]	anti-microbial activity of finishing liquid compared with zwitterionic finishing liquid, S. aureus [5, 9]	bacteriostatic rate, Aspergillus niger [6]	bacteriostatic rate, Staphylococcus aureus [7]	bacteriostatic rate, E. coli [8]	acaricidal activity against house dust mites (house dust mites)	anti-microbial rate of the anti-microbial finishing liquid, E. coli [4, 10] [%]	anti-microbial rate of the anti-microbial finishing liquid, S. aureus [5, 10] [%]
–	–	CCCCCCCC[N+](C)(C)CCOc1nc(Cl)nc(Cl)n1 [Example 1]	100	99.9	99.8	100	99.9	99.2	99.9	99.9	98.9	greater than that of the zwitterionic finishing liquid	greater than that of the zwitterionic finishing liquid	–	–	–	–	–	–
–	–	CCCCCCCCCCCCCCCCCC[n+]1ccn(CCOc2nc(Cl)nc(Cl)n2)c1 [Example 11]	100	99.9	99.9	100	99.9	99.9	99.9	99.9	99.6	–	–	over 99.99%	over 99.99%	over 99.99%	good acaricidal activity	–	–
4	1	Br.CCCCCCCCCC[N+](C)(C)CN(CCOc1nc(Cl)nc(Cl)n1)C[N+](C)(C)CCCCCCCCCC [Example 19]	100	99.9	99.8	100	99.9	99.7	99.9	99.9	97.9	–	–	–	–	–	–	> 99.9	> 99.9
